Consider 15 compounds from US9227956B2 (Pfizer Inc., priority 2013, dated 2016).

Each structure is given as a SMILES string. Bounds are passed on as bounds.

The test system of data set [1] is human PCSK9. In words: PCSK9 AlphaLISA assay, PCSK9 lowering in WT7 cells. The settings on record: WT7 cells (Huh7 stably over-expressing human PCSK9); secreted PCSK9 by AlphaLISA; overnight incubation (16-24 h); top concentration 20 μM; read-out: Cell Based PCSK9 IC50. An excerpt:
An in-vitro AlphaLISA assay (Perkin Elmer) was developed in order to quantitate the level of PCSK9 secreted into the cell culture media following compound treatment. To detect and measure PCSK9 protein an in-house generated anti-PCSK9 antibody was coupled to AlphaLISA acceptor beads by an external vendor (PerkinElmer) and a second internally developed anti-PCSK9 antibody with an epiptope distinct from that of the acceptor beads was biotinylated in house. Streptavidin coated-donor beads (Perkin Elmer) are also included in the assay mixture which then binds the biotinylated anti-PCSK9 antibody and in the presence of PCSK9 this donor complex and acceptor beads are brought into close proximity. […] The ability of compound to modulate PCSK9 protein levels in conditioned media by AlphaLISA was assessed in the human hepatocellular carcinoma cell line Huh7, stably over-expressing human PCSK9. […] Following plasmid transfection the stable WT7 clone was identified and maintained under Zeocin selection. Compound screening was performed in 384-well plates where WT7 cells were plated at a density of 7500 cells per well in 20 μL of tissue culture media containing compound in an eleven point, 0.5 log dilution format at a high treatment concentration of 20 μM in a final volume of 0.5% DMSO. In additional to these test compound conditions each screening plate also included wells that contained 20 μM puromycin as a positive assay control defined as high percent effect, HPE, as well as wells containing media in 0.5% DMSO as a negative treatment control defined as zero percent effect, ZPE. After overnight compound incubation (16-24 h) the tissue culture media was collected and an aliquot from each sample was transferred to individual wells of a 384-well white Optiplate (Perkin Elmer). The coupled antibodies and donor beads were added to the assay plates in a buffer composed of 30 mM Tris pH 7.4, 0.02% Tween-20 and 0.02% Casein. Anti-PCSK9 acceptor beads (final concentration of 10 μg/mL) and anti-PCSK9 biotinylated antibody (final concentration of 3 nM) were added and incubated for 30 minutes at room temperature followed by the addition of the streptavidin donor beads (final concentration 40 μg/mL) for an additional 60 minutes. Additionally a standard curve was generated where AlphaLISA reagents were incubated in wells spiked with recombinant human PCSK9 diluted in tissue culture media from 5000 ng/mL to 0.6 ng/mL. […] The test compound data were converted into percent effect, using the ZPE and HPE controls as 0% and 100% activity, respectively. The equation used for converting each well reading into percent effect was:
[formula] IC50 was then calculated and reported as the midpoint in the percent effect curve in molar units and the values are reported under the Cell Based PCSK9 IC50 (μM) column header within Table 1 Biological Data. Additionally, to monitor the selectivity of compound response for PCSK9 the level of a second secreted protein, Transferrin, was measured from the same conditioned media treated with test compound by AlphaLISA. […] To detect and quantify effects on Transferrin 0.01 mL of the culture media was transferred to a 384-well white Optiplate and 0.01 mL of media was added to bring the volume to 0.02 ml. Anti-Transferrin acceptor beads were added to a final concentration of 10 μg/mL, biotinylated anti-Transferrin at 3 nM and streptavidin donor beads at 40 μg/mL. Percent effect and IC50 for Transferrin was computed in a similar manner as that described for PCSK9.
For orientation: Bead proximity is the source of the signal in Alpha formats.

Data set [2] relates to human PCSK9. The experiment in a line: Cell Free PCSK9 Assay (PCSK9-luciferase RNA translated in HeLa cell lysate). Conditions: 30° C. for 45 minutes, luciferase readout, top concentration 100 μM. It is filed as biochemical. The protocol:
In order to eliminate the permeability barrier inherent to the WT7 and SCHH cell-based assays a cell-free system was also established to access compound activity. […] The construct was then in-vitro transcribed using the MEGAscript T7 Kit (Life Technologies) and RNA subsequently purified incorporating the MEGAclear Kit (Life Technologies) according to manufacturer's protocols. […] Growth was in a 50 L wavebag at a rocker speed of 25 rpm and angle 6.1 with 5% CO2 and 0.2 LPM flow rate with cells harvested at a density of 2-2.5e6/ml. Lysates additionally contained 1 tablet of Roche cOmplete-EDTA protease inhibitors per 50 ml with tris(2-carboxyethyl)phosphine (Biovectra) substituted for dithiothreitol, and were clarified by an additional final centrifugation at 10,000 rpm in a Sorvall SS34 rotor at 4° C. for 10 minutes. Compound screening was performed in 384-well plates in an eleven point, 0.5 log dilution format at a top test compound concentration of 100 μM in a final volume of 0.5% DMSO. […] Upon assay completion 1 μL from each reaction solution was removed and transferred to a second 384-well Optiplate (Perkin Elmer) containing 24 μL of SteadyGlo (Promega) and signal intensity was measured on the Envision (Perkin Elmer) using the enhanced luminescence protocol. […] The test compound data were converted into percent effect, using the ZPE and HPE controls as 0% and 100% activity, respectively, applying Equation 1 above. IC50 was then calculated and reported as the midpoint in the percent effect curve in molar units and the values are reported under the Cell Free PCSK9 IC50 (μM) column header within Table 1 Biological Data.

For the next data set, the system named is PCSK9. In words: PCSK9 lowering in sandwich culture human hepatocytes (SCHH). The data set is classed as cell-based. Conditions: maximum response versus vehicle. The method, then:
Test compound in-vitro pharmacokinetic and pharmacodynamic relationships were measured in sandwich culture primary cryopreserved human hepatocytes. Within these studies SCHH cells (BD Biosciences IVT) were thawed at 37° C. then placed on ice, after which the cells were added to pre-warmed (37° C.) In VitroGRO-HT media and centrifuged at 50×g for 3 min. The cell pellet was re-suspended to 0.8×10^6 cells/mL in InVitroGRO-CP plating medium and cell viability determined by trypan blue exclusion. On day 1, hepatocyte suspensions were plated in BioCoat 96-well plates at a density of 80000 cells/well in a volume of 0.1 mL/well. After 18 to 24 hours of incubation at 37° C. in 5% CO2, cells were overlaid with ice-cold 0.25 mg/mL BD Matrigel Matrix Phenol Red-Free in incubation medium at 0.1 mL/well. Cultures were maintained at 37° C. in 5% CO2 in InVitroGRO-HI (FBS-free media), which was replaced every 24 hours and time course treatments were initiated on day 5. Prior to compound treatment cell plates were washed 3 times with 0.1 mL/well InVitroGRO-HI and 0.09 mL of media was added back in preparation for the compound additions. 1 uL of either DMSO or compound DMSO stocks at 30 mM, 10 mM, 3 mM and 1 mM were stamped into 96 well V bottom polypropylene plates. 0.099 mL of media was added to the compound plate and mixed thoroughly before the addition of 0.010 mL from the interim compound plate to the cell plate. […] At the indicated time, 0.08 mL of media was removed from the cell plates and frozen for subsequent analysis of secreted PCSK9 by AlphaLISA and for determination of drug levels in the media by liquid chromatography-tandem mass spectrometry (LC-MS/MS). The remaining media was then aspirated and the cell layers were washed 3× with ice cold Hanks Balanced Salt Solution (HBSS) under shaking conditions to remove the matrigel overlay and plates were then stored at −20° C. for subsequent determination of drug levels in the cells by LC-MS/MS. AlphaLISA determination of PCSK9 protein levels within the conditioned media was performed ultilizing the identical reagents and detection protocols described above for the WT7 cells.

For the compound `Cn1ncc(-c2ccc(C(=O)N(c3nccc4ccn(C)c34)[C@@H]3CCCNC3)cc2)c1C(=O)O` [Example 12, 1-methyl-4-(4-{(1-methyl-1H-pyrrolo[2,3-c]pyridin-7-yl)[(3R)-piperidin-3-yl]carbamoyl}phenyl)-1H-pyrazole-5-carboxylic acid], the IC50 with human PCSK9 [1] was greater than 20 µM; with human PCSK9 [2] it was 1.7 µM. In the data set with PCSK9 (at 8 h at 30 μM), the “Sandwich Culture Hepatocyte (SCHH) PCSK9 Lowering” value is given as 36% at 8 h at 30 μM.

Turning to `Cc1cccnc1N(C(=O)c1ccc(-c2cnn(C)c2-c2nnn(C(OC(=O)OC(C)C)C(C)C)n2)cc1)[C@@H]1CCCNC1` (single isomer, unassigned) [Example 43], the results for the IC50 in the data set on human PCSK9 [1] and in the data set on human PCSK9 [2] were greater than 20 µM and 31.9 µM, respectively. Besides, in the data set on PCSK9 (at 6 h at 30 uM), the “Sandwich Culture Hepatocyte (SCHH) PCSK9 Lowering” value was 21% at 6 h at 30 uM.

Consider `CCC(OC(=O)OC(C)C)n1nnc(-c2c(-c3ccc(C(=O)N(c4ncccc4C)[C@@H]4CCCNC4)cc3)cnn2C)n1` (single isomer, unassigned) [Example 40], for which the IC50 in the data set on human PCSK9 [1] is greater than 20 µM; in the data set on human PCSK9 [2] it was 18.2 µM. Besides, in the data set on PCSK9 (at 6 h at 30 uM), the “Sandwich Culture Hepatocyte (SCHH) PCSK9 Lowering” value is 26% at 6 h at 30 uM.

Take `CCOC(=O)OC(C(C)C)n1nnc(-c2c(-c3ccc(C(=O)N(c4ncccc4C)[C@@H]4CCCNC4)cc3)cnn2C)n1` (single isomer, unassigned) [Example 34]: the IC50 is greater than 20 µM in the data set with human PCSK9 [1] and 5.22 µM in the data set on human PCSK9 [2]. Moreover, in the data set with PCSK9 (at 6 h at 30 uM), the “Sandwich Culture Hepatocyte (SCHH) PCSK9 Lowering” value is reported as 20% at 6 h at 30 uM.

Regarding `Cc1cccnc1N(C(=O)c1ccc(-c2cnn3cccnc23)cc1)[C@@H]1CCCNC1` [Example 1, N-(3-methylpyridin-2-yl)-N-[(3R)-piperidin-3-yl]-4-(pyrazolo[1,5-a]pyrimidin-3-yl)benzamide], the figures for the IC50 with human PCSK9 [1] and in the data set with human PCSK9 [2] were 3.2 µM and 0.44 µM, respectively. Besides, the “Sandwich Culture Hepatocyte (SCHH) PCSK9 Lowering” value in the data set on PCSK9 (at 8 h at 30 μM) is listed as 74% at 8 h at 30 μM.

In turn, `CCOC(=O)c1c(-c2ccc(C(=O)N(c3ncccc3Cl)[C@@H]3CCCNC3)cc2)cnn1C` [Example 6, ethyl 4-(4-{(3-chloropyridin-2-yl)[(3R)-piperidin-3-yl]carbamoyl}phenyl)-1-methyl-1H-pyrazole-5-carboxylate] gave an IC50 with human PCSK9 [2] of 1.7 µM. In addition, in the data set on PCSK9 (at 8 h at 30 μM), the “Sandwich Culture Hepatocyte (SCHH) PCSK9 Lowering” value amounted to 80% at 8 h at 30 μM.

As to `CCC(OC(=O)C(C)C)n1nnc(-c2c(-c3ccc(C(=O)N(c4ncccc4C)[C@@H]4CCCNC4)cc3)cnn2C)n1` (single isomer, unassigned) [Example 52], the IC50 in the data set on human PCSK9 [1] is greater than 20 µM; in the data set on human PCSK9 [2] it was 10.7 µM. For the same compound, in the data set on PCSK9 (at 6 h at 30 uM), the “Sandwich Culture Hepatocyte (SCHH) PCSK9 Lowering” value turned out to be 25% at 6 h at 30 uM.

In the case of `CCOC(=O)OC(CC)n1nnc(-c2c(-c3ccc(C(=O)N(c4ncccc4C)[C@@H]4CCCNC4)cc3)cnn2C)n1` (single isomer, unassigned) [Example 32], the IC50 is greater than 20 µM with human PCSK9 [1] and 7.26 µM in the data set on human PCSK9 [2]. The “Sandwich Culture Hepatocyte (SCHH) PCSK9 Lowering” value with PCSK9 (at 6 h at 30 uM) turned out to be 0% at 6 h at 30 uM.

Regarding `Cc1cccnc1N(C(=O)c1ccc(-c2cnn(C)c2-c2nnn(C(OC(=O)C(C)C)C(C)C)n2)cc1)[C@@H]1CCCNC1` (single isomer, unassigned) [Example 54], the IC50 in the data set on human PCSK9 [1] is greater than 20 µM; with human PCSK9 [2], 12.8 µM. Also, the “Sandwich Culture Hepatocyte (SCHH) PCSK9 Lowering” value in the data set on PCSK9 (at 6 h at 30 uM) came to 29% at 6 h at 30 uM.

On to `CCC(=O)OC(C(C)C)n1nnc(-c2c(-c3ccc(C(=O)N(c4ncccc4C)[C@@H]4CCCNC4)cc3)cnn2C)n1` (single isomer, unassigned) [Example 49], for which the IC50 in the data set with human PCSK9 [1] is greater than 20 µM; in the data set with human PCSK9 [2], 15.4 µM. Also, in the data set with PCSK9 (at 6 h at 30 uM), the “Sandwich Culture Hepatocyte (SCHH) PCSK9 Lowering” value is listed as 0% at 6 h at 30 uM.

Consider `CCC(OC(=O)C(C)C)n1nnc(-c2c(-c3ccc(C(=O)N(c4ncccc4C)[C@@H]4CCCNC4)cc3)cnn2C)n1` (single isomer, unassigned) [Example 53], for which the IC50 with human PCSK9 [1] is greater than 20 µM; in the data set with human PCSK9 [2], 31.8 µM. The “Sandwich Culture Hepatocyte (SCHH) PCSK9 Lowering” value with PCSK9 (at 6 h at 30 uM) is 0% at 6 h at 30 uM.

For `Cc1cccnc1N(C(=O)c1ccc(-c2cnn(C)c2-c2nnn(C(C)OC(=O)OC(C)C)n2)cc1)[C@@H]1CCCNC1` (single isomer, unassigned) [Example 39], the IC50 in the data set on human PCSK9 [2] is 0.592 µM. Besides, the “Sandwich Culture Hepatocyte (SCHH) PCSK9 Lowering” value with PCSK9 (at 6 h at 30 uM) is on record as 0% at 6 h at 30 uM.

In the data set with human PCSK9 [2], `Cc1cccnc1N(C(=O)c1ccc(-c2cnn(C)c2-c2nnn(C(C)OC(=O)OC(C)C)n2)cc1)[C@@H]1CCCNC1` (single isomer, unassigned) [Example 38] gave an IC50 of 2.19 µM. The “Sandwich Culture Hepatocyte (SCHH) PCSK9 Lowering” value with PCSK9 (at 6 h at 30 uM) was 3% at 6 h at 30 uM.

On to `CCOC(=O)OC(C)N(C(=O)c1c(-c2ccc(C(=O)N(c3ncccc3C)[C@@H]3CCCNC3)cc2)cnn1C)S(C)(=O)=O` (stereo partly drawn) [Example 29, ethyl 1-[{[1-methyl-4-(4-{(3-methylpyridin-2-yl)[(3R)-piperidin-3-yl]carbamoyl}phenyl)-1H-pyrazol-5-yl]carbonyl}methylsulfonyl)amino]ethyl carbonate], for which the IC50 in the data set with human PCSK9 [1] was greater than 20 µM. The “Sandwich Culture Hepatocyte (SCHH) PCSK9 Lowering” value in the data set on PCSK9 (at 6 h at 30 uM) is recorded as 72% at 6 h at 30 uM.

Regarding `CCOC(=O)OC(C)n1nnnc1-c1c(-c2ccc(C(=O)N(c3ncccc3C)[C@@H]3CCCNC3)cc2)cnn1C` (stereo partly shown) [Example 21], the IC50 with human PCSK9 [1] is greater than 20 µM. For the same compound, the “Sandwich Culture Hepatocyte (SCHH) PCSK9 Lowering” value with PCSK9 (at 6 h at 30 uM) came to 57% at 6 h at 30 uM.

By IC50 is commonly meant the concentration at which inhibition is half-maximal.
